Reference: patent publication US12415819B2, “Cu- and Ni-catalyzed decarboxylative borylation reactions” (The Scripps Research Institute, priority 2017, dated 2025)
“And” between values parts separate entries of the source, which are not always exact repeats. Equal entries are not always repeated.

Assays:
[1] = molecular target: elastase in CF patient sputum (Homo sapiens (Human), UniProt P08246); assay: Elastase inhibition assay in CF patient sputum; type: biochemical; settings: for IC50 / LipE: CF sputum; for inhibitory activity in patient sputum versus purified HNE (in words): sputum samples of CF and COPD patients
Sequence of elastase in CF patient sputum (P08246 30-267): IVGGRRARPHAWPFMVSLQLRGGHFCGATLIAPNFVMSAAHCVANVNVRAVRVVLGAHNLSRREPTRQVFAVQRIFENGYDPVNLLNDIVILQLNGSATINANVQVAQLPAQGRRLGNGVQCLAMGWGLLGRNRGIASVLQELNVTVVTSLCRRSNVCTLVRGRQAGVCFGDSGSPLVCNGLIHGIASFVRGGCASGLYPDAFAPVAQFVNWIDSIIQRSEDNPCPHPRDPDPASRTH
Procedure: Serially diluted compounds in DMSO were dispensed into a 384-well black opaque plate by Echo dispenser. 0.1 μg/mL human neutrophil elastase (EPC, Catalog# SE563, Owensville, Ms.) or human sputum diluted with assay buffer (100 mM HEPES, 500 mM NaCl, 0.02% Tween 20) was added into the 384-well plate, and was incubated with different compounds at different concentrations for 30 minutes at room temperature. The final concentration of DMSO in the reaction was 0.1%. Elastase substrate MeOSuc-AAPV-AMC (Bachem, Catalog #I-1270, Torrance, CA) of 100 μM final concentration was then added into the reaction system just before enzyme kinetics were read on PheraSTAR plate reader at excitation of 380 nm and emission of 460 nm with a 3-minutes interval for 30 minutes in total. Slope of fluorescence intensity vs. time representing the Vmax of enzyme activity was calculated with MARS software. % relative inhibition was calculated as: […]
IC50 was calculated based on the % relative inhibition curve using log(agonist) vs. response (three parameters) method with Prism software. All experiments were performed in triplicate for at least three independent times.
Human sputum was purchased from Discovery Life Sciences (Los Osos, CA). Human sputum was diluted 1:10 in volume with assay buffer (100 mM HEPES, 500 mM NaCl, 0.02% Tween 20) followed by vigorous vortexing. The 1:10 diluted human sputum was further diluted into 1:30, 1:90, 1:270, 1:810, and 1:2430. The elastase concentration was determined by elastase inhibition assay as described above. Specifically, a series of standards of human neutrophil elastase (starting at 2 μg/mL and further diluted 1:2 in volume) were prepared in the assay buffer. The samples and standards were plated in a 384-well black solid bottom plate; the substrate MeOSuc-AAPV-AMC of 100 μM final concentration was then added into the reaction system just before enzyme kinetics were read on PheraSTAR plate reader as mentioned above. The slope of enzymatic kinetic reading was calculated by MARS software. The elastase levels of the human sputum were calculated based on the standard curve.

in vitro [2] = settings: mouse, pH 7.4; for Extraction ratio / Microsomal stability (Mouse ER) / Remaining (*NCF = 60min) / Remaining (T = 60 min): 1 μM; for Microsomal stability (Mouse ER) / Remaining (*NCF = 60min) / Remaining (T = 60 min) / CLint scaled at 1 μM / half-life at 1 μM / microsomal CLint at 1 μM: microsomes; for Remaining (*NCF = 60min) / Remaining (T = 60 min): 1 h
Procedure: 100 mM potassium phosphate buffer, pH 7.4. • 2. 10 mM MgCl2 • 3) Compound Dilution:
Intermediate solution was prepared by diluting 5 μL of compound or control stock solution (10 mM in DMSO) with DMSO (45 μL) and 1:1 Methanol/Water (450 μL) (concentration=100 μM, 45% MeOH). Working solution was prepared by diluting 50 μL of the intermediate solution with 450 μL of 100 mM potassium phosphate buffer, pH=7.4 (centration=10 μM, 4.5% MeOH). • 4) NADPH regenerating system (final Isocitric dehydrogenase concentration=1 unit/mL at incubation) comprised:
10 μL/well of compound working solution or control working solution was added to all plates (T0, T5, T10, T20, T30, T60, NCF60) except the matrix blank. 80 μL/well of microsome solution was added to every plate. The mixtures of microsome solution and compound were incubated at 37° C. for about 10 min. 10 μL/well of NADPH regenerating system (pre-warmed to 37° C.) was then added to every plate to start the reaction. […] For NCF60 (abbreviation of no co-factor) no NADPH regenerating system was added, but was replaced by 10 μL/well of potassium phosphate buffer (100 mM, pH 7.4); the resulting mixture was incubated at 37° C. for 1 h.
The reactions were then terminated with the stop solution (cold at 4° C.) containing 100 ng/mL Tolbutamide and 100 ng/mL Labetalol ([…]). The sampling plates were shaken for approximately 10 minutes, then were centrifuged at 4000 rpm for 20 min at 4° C. While centrifuging, 8 new 96 well plates were loaded with […] of HPLC grade water. 100 μL of supernatant was finally added to 300 μL of HPLC grade water and mixed for LC/MS/MS analysis.
The equation of first order kinetics was used to calculate T1/2 and CIint(mic): […]

Kinetic Solubility Test = type: physicochemical; settings: for solubility kinetic at 24 h: aqueous buffer, kinetic from dmso stock, phosphate buffer pH 6.8, 24 h; for Kinetic solubility (pH 6.8): summary table
Procedure: The stock solution of each compound (10 μL; 10 mM in DMSO) was diluted with phosphate buffer solution (490 μL; 50 mM, pH 6.8). The resulting mixture was shaken for 24 h. Samples were then filtered.

in vitro [3] = settings: human
Procedure: Digoxin, fenoterol, and propranol were used as standards respectively. Transport Method:
The transport buffer used in the study was HBSS with 10 mM HEPES at pH 7.40±0.05. Compounds were tested at 2 μM bi-directionally in duplicates. Digoxin was tested at […] bi-directionally in a duplicate, while fenoterol and propranolol were tested at 2 μM in A(apical) to B (basolateral) direction in duplicates. The final DMSO concentration was adjusted to less than 1%. The plate was incubated for 2 hours in a CO2 incubator at 37±1° C., with 5% CO2 at saturated humidity without shaking. All samples, after mixing with acetonitrile containing internal standard, were centrifuged at 4000 rpm for 20 min. Subsequently,100 μL supernatant solution was diluted with 100 μL distilled water for LC/MS/MS analysis. Concentrations of test and control compounds in starting solution, donor solution, and receiver solution were quantified by LC/MS/MS methodologies, using peak area ratio of analyte/internal standard. After transport assay, lucifer yellow rejection assay was applied to determine the Caco-2 cell monolayer integrity.
Data analysis: The apparent permeability coefficient Papp (cm/s) was calculated using the equation:
The efflux ratio was calculated using the equation: Efflux ratio=Papp(BA)/Papp(AB)
Percent recovery was calculated using the equation: % Recovery=100×[(Vr·Cr)+(Vd·Cd)]/(Vd·C0) Where Vd is the volume in the donor chambers (0.075 mL on the apical side, 0.25 mL on the basolateral side); Cd and Cr are the final concentrations of transport compound in donor and receiver chambers, respectively.

Structure (SMILES)	IC50 [1]	LipE [1]	inhibitory activity in patient sputum versus purified HNE (in words) [1]	Extraction ratio (in vitro [2])	Microsomal stability (Mouse ER) (in vitro [2])	Remaining (*NCF = 60min) (in vitro [2])	Remaining (T = 60 min) (in vitro [2])	CLint scaled at 1 μM (in vitro [2])	half-life at 1 μM (in vitro [2])	microsomal CLint at 1 μM (in vitro [2])	solubility kinetic at 24 h (Kinetic Solubility Test)	Kinetic solubility (pH 6.8) (Kinetic Solubility Test)	Papp A→B at 120 min, 2 μM (in vitro [3]; Caco-2, pH 7.4)	Papp A→B at 2 h, 2 μM (in vitro [3]; Caco-2, pH 7.4)	Papp B→A at 120 min, 2 μM (in vitro [3]; Caco-2, pH 7.4)	Papp B→A at 2 h, 2 μM (in vitro [3]; Caco-2, pH 7.4)	efflux ratio at 2 h, 2 μM (in vitro [3]; Caco-2, pH 7.4)	recovery at 2 h, 2 μM (in vitro [3]; Caco-2, pH 7.4, Mean Recovery % A to B)	recovery at 2 h, 2 μM (in vitro [3]; Caco-2, pH 7.4, Mean Recovery % B to A)
CC(C)[C@H](NC(=O)[C@@H]1CCCN1C(=O)[C@@H](NC(=O)c1ccc(C(=O)NS(=O)(=O)c2ccc(Cl)cc2)cc1)C(C)C)B(O)O [Compound 51, (1-((S)-1-((4-(((4-chlorophenyl)sulfonyl)carbamoyl)benzoyl)-L-valyl)pyrrolidine-2-carboxamido)-2-methylpropyl)boronic acid]	0.096 ± 0.002 nM	6.83	retained much of their inhibitory activities	<0.3	<0.3	95.0%	85.8%	< 38 mL/min/kg	> 2.42 h	< 9.6 µL/min/mg	> 127 µg/mL and > 200 µM	>200 μm	< 0.16 ×10⁻⁶ cm/s	< 0.08 ×10⁻⁶ cm/s	0.61 ×10⁻⁶ cm/s	< 0.12 ×10⁻⁶ cm/s	> 3.91	< 88.2%	99.1%
CC(C)[C@H](NC(=O)[C@@H]1CCCN1C(=O)[C@@H](NC(=O)c1ccc(C(=O)NCC(=O)O)cc1)C(C)C)B(O)O [Compound 52, (4-(((2S)-1-((2S)-2-((1-borono-2-methylpropyl)carbamoyl)pyrrolidin-1-yl)-3-methyl-1-oxobutan-2-yl)carbamoyl)benzoyl)glycine]	0.043 ± 0.002 nM	9.62	retained much of their inhibitory activities	<0.3	<0.3	103.6%	78.9%	< 38 mL/min/kg	> 2.42 h	< 9.6 µL/min/mg	> 104 µg/mL and > 200 µM	>200 μm	–	–	–	–	–	–	–
